Laboratory results as given in ChEMBL document CHEMBL1201862, “PubChem BioAssay data set” (2004).
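Results reflect a 48-hour exposure of cells in 96-well plates to compound at five concentrations. At the GI50, growth is halved.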 Active and inactive are the calls of the source. Rule as the data show it: active = GI50 up to about 1.1 µM and inactive = higher.

What was measured:
Experiment in all cases: NCI anticancer screen, dose series, 48 h
786-0 = tested on: 786-0
A498 = tested on: A498
A549 = tested on: A549
ACHN = tested on: ACHN
CAKI-1 = tested on: CAKI-1
CCRF-CEM = tested on: CCRF-CEM
COLO 205 = tested on: COLO 205
DLD-1 = tested on: DLD-1
DMS-114 = tested on: DMS-114
DMS-273 = tested on: DMS-273
EKVX = tested on: EKVX
HCC 2998 = tested on: HCC 2998
HCT-116 = tested on: HCT-116
HCT-15 = tested on: HCT-15
HL-60 = tested on: HL-60
HOP-18 = tested on: HOP-18
HOP-62 = tested on: HOP-62
HOP-92 = tested on: HOP-92
HT-29 = tested on: HT-29
IGROV-1 = tested on: IGROV-1
K562 = tested on: K562
KM-20L2 = tested on: KM-20L2
KM12 = tested on: KM12
LOX IMVI = tested on: LOX IMVI
LXFL 529 = tested on: LXFL 529
M14 = tested on: M14
M19-MEL = tested on: M19-MEL
MOLT-4 = tested on: MOLT-4
Malme-3M = tested on: Malme-3M
NCI-H226 = tested on: NCI-H226
NCI-H23 = tested on: NCI-H23
NCI-H460 = tested on: NCI-H460
NCI-H522 = tested on: NCI-H522
OVCAR-3 = tested on: OVCAR-3
OVCAR-4 = tested on: OVCAR-4
OVCAR-5 = tested on: OVCAR-5
OVCAR-8 = tested on: OVCAR-8
RPMI-8226 = tested on: RPMI-8226
RXF 393 = tested on: RXF 393
SF-268 = tested on: SF-268
SF-295 = tested on: SF-295
SF-539 = tested on: SF-539
SK-MEL-28 = tested on: SK-MEL-28
SK-MEL-2 = tested on: SK-MEL-2
SK-MEL-5 = tested on: SK-MEL-5
SK-OV-3 = tested on: SK-OV-3
SN12C = tested on: SN12C
SNB-19 = tested on: SNB-19
SNB-75 = tested on: SNB-75
SNB-78 = tested on: SNB-78
SR = tested on: SR
SW-620 = tested on: SW-620
TK-10 = tested on: TK-10
U-251 = tested on: U-251
UACC-257 = tested on: UACC-257
UACC-62 = tested on: UACC-62
UO-31 = tested on: UO-31
XF498 = tested on: XF498

With `NS(=O)(=O)c1ccc(NC2=CC(=O)C(=O)c3ccccc32)cc1` the GI50 (786-0) was > 100 µM (inactive), the GI50 (A498) was > 100 µM (inactive) and the GI50 (A549) was > 100 µM (inactive). The GI50 (ACHN) was > 100 µM (inactive), the GI50 (CAKI-1) was > 100 µM (inactive) and the GI50 (CCRF-CEM) was > 100 µM (inactive). For the same compound, the GI50 (COLO 205) was > 100 µM (inactive), the GI50 (DLD-1) was > 100 µM (inactive) and the GI50 (DMS-114) was 43.2 µM (inactive). For the same compound, the GI50 (DMS-273) was > 100 µM (inactive), the GI50 (EKVX) was > 100 µM (inactive) and the GI50 (HCC 2998) was > 100 µM (inactive). For the same compound, the GI50 (HCT-116) was 76.4 µM (inactive), the GI50 (HCT-15) was over 100 µM and the GI50 (HL-60) was > 100 µM (inactive). For the same compound, the GI50 (HOP-18) was > 100 µM (inactive), the GI50 (HOP-62) was > 100 µM (inactive) and the GI50 (HOP-92) was > 100 µM (inactive). The GI50 (HT-29) was > 100 µM (inactive), the GI50 (IGROV-1) was > 100 µM (inactive) and the GI50 (K562) was > 100 µM (inactive). For the same compound, the GI50 (KM-20L2) was > 100 µM (inactive), the GI50 (KM12) was > 100 µM (inactive) and the GI50 (LOX IMVI) was > 100 µM (inactive). The GI50 (LXFL 529) was > 100 µM (inactive), the GI50 (M14) was > 100 µM (inactive) and the GI50 (M19-MEL) was > 100 µM (inactive). For the same compound, the GI50 (MOLT-4) was 72.1 µM (inactive), the GI50 (Malme-3M) was > 100 µM (inactive) and the GI50 (NCI-H226) was > 100 µM (inactive). For the same compound, the GI50 (NCI-H23) was > 100 µM (inactive), the GI50 (NCI-H460) was > 100 µM (inactive) and the GI50 (NCI-H522) was > 100 µM (inactive). The GI50 (OVCAR-3) was > 100 µM (inactive), the GI50 (OVCAR-4) was > 100 µM (inactive) and the GI50 (OVCAR-5) was > 100 µM (inactive). For the same compound, the GI50 (OVCAR-8) was > 100 µM (inactive), the GI50 (RPMI-8226) was > 100 µM (inactive) and the GI50 (RXF 393) was > 100 µM (inactive). For the same compound, the GI50 (SF-268) was > 100 µM (inactive), the GI50 (SF-295) was > 100 µM (inactive) and the GI50 (SF-539) was > 100 µM (inactive). The GI50 (SK-MEL-28) was > 100 µM (inactive), the GI50 (SK-MEL-2) was > 100 µM (inactive) and the GI50 (SK-MEL-5) was > 100 µM (inactive). The GI50 (SK-OV-3) was > 100 µM (inactive), the GI50 (SN12C) was > 100 µM (inactive) and the GI50 (SNB-19) was > 100 µM (inactive). For the same compound, the GI50 (SNB-75) was > 100 µM (inactive), the GI50 (SNB-78) was > 100 µM (inactive) and the GI50 (SR) was > 100 µM (inactive). The GI50 (SW-620) was > 100 µM (inactive), the GI50 (TK-10) was > 100 µM (inactive) and the GI50 (U-251) was > 100 µM (inactive). For the same compound, the GI50 (UACC-257) was > 100 µM (inactive), the GI50 (UACC-62) was > 100 µM (inactive) and the GI50 (UO-31) was > 100 µM (inactive).
With `COc1ccc2c(c1)OC(c1ccccc1O)CC2=O` (stereo not given) the GI50 (786-0) was 40.5 µM (inactive), the GI50 (A498) was 53.1 µM (inactive) and the GI50 (A549) was 40.6 µM (inactive). For the same compound, the GI50 (ACHN) was 46.2 µM (inactive), the GI50 (CAKI-1) was 51.5 µM (inactive) and the GI50 (CCRF-CEM) was 30.5 µM (inactive). For the same compound, the GI50 (DLD-1) was 29 µM (inactive), the GI50 (EKVX) was 96.8 µM (inactive) and the GI50 (HCC 2998) was 48.9 µM (inactive). For the same compound, the GI50 (HCT-116) was 29.5 µM (inactive), the GI50 (HCT-15) was 27.2 µM and the GI50 (HOP-18) was 5.64 µM (inactive). The GI50 (HOP-62) was 41.4 µM (inactive), the GI50 (HT-29) was 74.6 µM (inactive) and the GI50 (K562) was 28.3 µM (inactive). For the same compound, the GI50 (KM-20L2) was > 100 µM (inactive), the GI50 (KM12) was 27.5 µM (inactive) and the GI50 (LXFL 529) was 21.7 µM (inactive). For the same compound, the GI50 (M14) was 39.9 µM (inactive), the GI50 (MOLT-4) was 26.1 µM (inactive) and the GI50 (Malme-3M) was 47.3 µM (inactive). For the same compound, the GI50 (NCI-H23) was 28.7 µM (inactive), the GI50 (NCI-H460) was 50.1 µM (inactive) and the GI50 (NCI-H522) was 27.9 µM (inactive). For the same compound, the GI50 (OVCAR-3) was 28.1 µM (inactive), the GI50 (OVCAR-4) was 47.3 µM (inactive) and the GI50 (OVCAR-5) was > 100 µM (inactive). The GI50 (OVCAR-8) was 47.6 µM (inactive), the GI50 (RPMI-8226) was 23.9 µM (inactive) and the GI50 (SF-268) was 29.2 µM (inactive). For the same compound, the GI50 (SF-295) was 45.7 µM (inactive), the GI50 (SF-539) was 45.9 µM (inactive) and the GI50 (SK-MEL-28) was 48.2 µM (inactive). For the same compound, the GI50 (SK-MEL-2) was 26.6 µM (inactive), the GI50 (SK-MEL-5) was 40 µM (inactive) and the GI50 (SN12C) was 41.5 µM (inactive). For the same compound, the GI50 (SNB-19) was > 100 µM (inactive), the GI50 (SNB-75) was 30.9 µM (inactive) and the GI50 (SNB-78) was 26.5 µM (inactive). For the same compound, the GI50 (SW-620) was 40.6 µM (inactive), the GI50 (TK-10) was > 100 µM (inactive) and the GI50 (U-251) was 44.5 µM (inactive). For the same compound, the GI50 (UACC-257) was 39.5 µM (inactive), the GI50 (UO-31) was 18.1 µM (inactive) and the GI50 (XF498) was 40.7 µM (inactive).
With `N#CC(C(=O)Nc1ccccc1)C1=C(Cl)C(=O)c2ccccc2C1=O` (stereo not given) the GI50 (786-0) was 14.6 µM (inactive), the GI50 (A498) was 47.1 µM (inactive) and the GI50 (A549) was 19.6 µM (inactive). For the same compound, the GI50 (CAKI-1) was 18 µM (inactive), the GI50 (CCRF-CEM) was 7.59 µM (inactive) and the GI50 (COLO 205) was 17.5 µM (inactive). For the same compound, the GI50 (DLD-1) was 17.1 µM (inactive), the GI50 (DMS-114) was 17.8 µM (inactive) and the GI50 (EKVX) was 17.5 µM (inactive). For the same compound, the GI50 (HCC 2998) was 18.1 µM (inactive), the GI50 (HCT-116) was 14.2 µM (inactive) and the GI50 (HCT-15) was 18.5 µM. The GI50 (HL-60) was 4.23 µM (inactive), the GI50 (HOP-18) was 10.7 µM (inactive) and the GI50 (HOP-62) was 17.9 µM (inactive). The GI50 (HOP-92) was 14.3 µM (inactive), the GI50 (HT-29) was 26 µM (inactive) and the GI50 (IGROV-1) was 17.9 µM (inactive). The GI50 (K562) was 13.6 µM (inactive), the GI50 (KM-20L2) was 23 µM (inactive) and the GI50 (KM12) was 21.5 µM (inactive). For the same compound, the GI50 (LOX IMVI) was 15.7 µM (inactive), the GI50 (LXFL 529) was 19.9 µM (inactive) and the GI50 (M14) was 16.5 µM (inactive). For the same compound, the GI50 (M19-MEL) was 7.66 µM (inactive), the GI50 (Malme-3M) was 13.8 µM (inactive) and the GI50 (NCI-H226) was 17 µM (inactive). For the same compound, the GI50 (NCI-H23) was 18.5 µM (inactive), the GI50 (NCI-H460) was 33.9 µM (inactive) and the GI50 (NCI-H522) was 15.5 µM (inactive). The GI50 (OVCAR-3) was 15.6 µM (inactive), the GI50 (OVCAR-4) was 16.9 µM (inactive) and the GI50 (OVCAR-5) was 17.6 µM (inactive). The GI50 (OVCAR-8) was 18.9 µM (inactive), the GI50 (RXF 393) was 17.6 µM (inactive) and the GI50 (SF-268) was 15.7 µM (inactive). The GI50 (SF-295) was 17.9 µM (inactive), the GI50 (SF-539) was 15.2 µM (inactive) and the GI50 (SK-MEL-28) was 17.1 µM (inactive). For the same compound, the GI50 (SK-MEL-2) was 16.3 µM (inactive), the GI50 (SK-MEL-5) was 16.1 µM (inactive) and the GI50 (SK-OV-3) was 23.9 µM (inactive). The GI50 (SN12C) was 15.7 µM (inactive), the GI50 (SNB-19) was 17.7 µM (inactive) and the GI50 (SNB-75) was > 10 µM (inactive). For the same compound, the GI50 (SNB-78) was 20.1 µM (inactive), the GI50 (SW-620) was 20.6 µM (inactive) and the GI50 (TK-10) was 21.7 µM (inactive). For the same compound, the GI50 (U-251) was 27.2 µM (inactive), the GI50 (UACC-257) was 2.05 µM (inactive) and the GI50 (UACC-62) was 16.8 µM (inactive). For the same compound, the GI50 (UO-31) was 13.9 µM (inactive) and the GI50 (XF498) was 16.7 µM (inactive).
